Assay results as given in patent US9890142B2, “PDE4 inhibitor” (Meiji Seika Pharma Co., Ltd., priority 2013, dated 2018).

System: PDE4
Assay: Evaluation of PDE4 inhibition (scintillation proximity assay)
Type: biochemical
Settings: inhibition rate relative to control, test compound at 1 μM
Outline: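 PDE4 was incubated 120 min at room temperature with [3H]-cAMP and compound in 50 mM Tris-HCl pH 7.5, 8.3 mM MgCl2, 1.7 mM EDTA, 0.3 mg/mL BSA. Product captured on ZnSO4-containing YSi-SPA beads and counted; inhibition calculated against DMSO control after no-enzyme blank subtraction.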

SMILES | PDE4 inhibitory activity (1 μM (%))
C[C@H]1CNCCN1c1nc2cc(Cl)cc(S(C)(=O)=O)c2o1 [Example 145, (S)-5-Chloro-2-(2-methylpiperazin-1-yl)-7-(methylsulfonyl)benzoxazole] | 80%
C[C@H]1CNCCN1c1nc2c(I)c(Cl)cc(-c3ccccn3)c2o1 [Example 146, (S)-5-Chloro-4-iodo-2-(2-methylpiperazin-1-yl)-7-(pyridin-2-yl)benzoxazole] | 95%
C[C@H]1CNCCN1c1nc2cc(Cl)c(I)c(-c3ccccn3)c2o1 [Example 147, (S)-5-Chloro-6-iodo-2-(2-methylpiperazin-1-yl)-7-(pyridin-2-yl)benz oxazole] | 53%
C[C@H]1CNCCN1c1nc2c(-c3ccccc3)c(Cl)cc(-c3ccccn3)c2o1 [Example 148, (S)-5-Chloro-2-(2-methylpiperazin-1-yl)-4-phenyl-7-(pyridin-2-yl)benzoxazole] | 94%
C[C@H]1CNCCN1c1nc2c(C3CC3)c(Cl)cc(-c3ccccn3)c2o1 [Example 149, (S)-5-Chloro-4-cyclopropyl-2-(2-methylpiperazin-1-yl)-7-(pyridin-2-yl)benzoxazole] | 91%
CSc1c(Cl)cc(-c2ccccn2)c2oc(N3CCNC[C@@H]3C)nc12 [Example 150, (S)-5-Chloro-2-(2-methylpiperazin-1-yl)-4-(methylthio)-7-(pyridin-2-yl)benzoxazole] | 91%
C[C@H]1CNCCN1c1nc2c(S(C)(=O)=O)c(Cl)cc(-c3ccccn3)c2o1 [Example 151, (S)-5-Chloro-2-(2-methylpiperazin-1-yl)-4-(methylsulfonyl)-7-(pyridin-2-yl)benzoxazole] | 76%
C[C@H]1CNCCN1c1nc2cc(Cl)c(Br)c(-c3ccccn3)c2o1 [Example 152, (S)-6-Bromo-5-chloro-2-(2-methylpiperazin-1-yl)-7-(pyridin-2-yl)benzoxazole] | 68%
COc1c(Cl)cc(-c2ccccn2)c2oc(N3CCNC[C@@H]3C)nc12 [Example 153, (S)-5-Chloro-4-methoxy-2-(2-methylpiperazin-1-yl)-7-(pyridin-2-yl)benzoxazole] | 93%
Cc1cc(Cl)cc2nc(N3CCNC[C@@H]3C)oc12 [Example 154, (S)-5-Chloro-7-methyl-2-(2-methylpiperazin-1-yl)benzoxazole] | 39%
COc1c(Cl)cc(-c2nccs2)c2oc(N3CCNC[C@@H]3C)nc12 [Example 155, (S)-5-Chloro-4-methoxy-2-(2-methylpiperazin-1-yl)-7-(thiazol-2-yl)benzoxazole] | 96%
COc1c(Cl)cc(-n2cccn2)c2oc(N3CCNC[C@@H]3C)nc12 [Example 156, (S)-5-Chloro-4-methoxy-2-(2-methylpiperazin-1-yl)-7-(1H-pyrazol-1-yl)benzoxazole] | 91%
C[C@@H]1CNCCN1c1nc2c(OC(F)(F)F)c(Cl)cc(-c3ccccn3)c2o1 [Example 157, (R)-5-Chloro-2-(2-methylpiperazin-1-yl)-7-(pyridin-2-yl)-4-(trifluoromethoxy)benzoxazole] | 41%
C[C@@H]1CNCCN1c1nc2c(OC(F)(F)F)c(Cl)cc(-c3nccs3)c2o1 [Example 158, (R)-5-Chloro-2-(2-methylpiperazin-1-yl)-7-(thiazol-2-yl)-4-(trifluoromethoxy)benzoxazole] | 88%
C[C@@H]1CNCCN1c1nc2c(OC(F)(F)F)c(Cl)cc(-n3cccn3)c2o1 [Example 159, (R)-5-Chloro-2-(2-methylpiperazin-1-yl)-7-(1H-pyrazol-1-yl)-4-(trifluoromethoxy)benzoxazole] | 57%
C[C@H]1CNCCN1c1nc2cc(Cl)c(OC(F)(F)F)c(-c3nccs3)c2o1 [Example 160, (S)-5-Chloro-2-(2-methylpiperazin-1-yl)-7-(thiazol-2-yl)-6-(trifluoromethoxy)benzoxazole] | 86%
COc1c(Cl)cc2nc(N3CCNC[C@@H]3C)oc2c1C [Example 161, (S)-5-Chloro-6-methoxy-7-methyl-2-(2-methylpiperazin-1-yl)benzoxazole] | 19%
Cc1c(O)c(Cl)cc2nc(N3CCNC[C@@H]3C)oc12 [Example 162, (S)-5-Chloro-6-hydroxy-7-methyl-2-(2-methylpiperazin-1-yl)benzoxazole] | 35%

SMILES | PDE4 inhibitory activity (1 μM (%))
C[C@H]1CNCCN1c1nc2c(Br)cc(Cl)cc2o1 [Example 163, (S)-4-Bromo-6-chloro-2-(2-methylpiperazin-1-yl)benzoxazole] | 52%
C[C@H]1CNCCN1c1nc2c(-c3ccco3)cc(Cl)cc2o1 [Example 164, (S)-6-Chloro-4-(furan-2-yl)-2-(2-methylpiperazin-1-yl)benzoxazole] | 75%
C[C@@H]1CNCCN1c1nc2c(-c3ccco3)cc(Cl)cc2o1 [Example 165, (R)-6-Chloro-4-(furan-2-yl)-2-(2-methylpiperazin-1-yl)benzoxazole] | 31%
C[C@H]1CNCCN1c1nc2c(-n3cccn3)cc(Cl)cc2o1 [Example 166, (S)-6-Chloro-2-(2-methylpiperazin-1-yl)-4-(1H-pyrazol-1-yl)benzoxazole] | 71%
C[C@H]1CNCCN1c1nc2cc(Br)ccc2o1 [Example 167, (S)-5-Bromo-2-(2-methylpiperazin-1-yl)benzoxazole] | 16%
COc1cc(C#N)cc2nc(N3CCNC[C@@H]3C)oc12 [Example 168, (S)-5-Cyano-7-methoxy-2-(2-methylpiperazin-1-yl)benzoxazole] | 13%
COc1c(Cl)cc2nc(N3CCNC[C@@H]3C)oc2c1OC [Example 169, (S)-5-Chloro-6,7-dimethoxy-2-(2-methylpiperazin-1-yl)benzoxazole] | 22%
Cc1cc2oc(N3CCNC[C@@H]3C)nc2cc1Cl [Example 170, (S)-5-Chloro-6-methyl-2-(2-methylpiperazin-1-yl)benzoxazole] | 15%
COc1cc2oc(N3CCNC[C@@H]3C)nc2cc1Cl [Example 171, (S)-5-Chloro-6-methoxy-2-(2-methylpiperazin-1-yl)benzoxazole] | 14%
Cc1cc(N2CCCC2)cc2nc(N3CCNC[C@@H]3C)oc12 [Example 172, (S)-7-Methyl-5-(pyrrolidin-1-yl)-2-(2-methylpiperazin-1-yl)benzoxazole] | <10%
Cc1cc(-c2ccsc2)cc2nc(N3CCNC[C@@H]3C)oc12 [Example 173, (S)-7-Methyl-5-(thiophen-3-yl)-2-(2-methylpiperazin-1-yl)benzoxazole] | 35%
CCc1cc(Cl)cc2nc(N3CCNC[C@H]3C)oc12 [Example 174, (R)-5-Chloro-7-ethyl-2-(2-methylpiperazin-1-yl)benzoxazole] | 21%
FC(F)(F)Oc1c(Cl)cc(-c2nccs2)c2oc(N3CCNCC3)nc12 [Example 175, 5-Chloro-2-(piperazin-1-yl)-7-(thiazol-2-yl)-4-(trifluoromethoxy)benzoxazole] | 96%
C[C@@H]1CN(c2nc3c(OC(F)(F)F)c(Cl)cc(-c4nccs4)c3o2)CCN1 [Example 176, (R)-5-Chloro-2-(3-methylpiperazin-1-yl)-7-(thiazol-2-yl)-4-(trifluoromethoxy)benzoxazole] | 91%
C[C@H]1CN(c2nc3c(OC(F)(F)F)c(Cl)cc(-c4nccs4)c3o2)CCN1 [Example 177, (S)-5-Chloro-2-(3-methylpiperazin-1-yl)-7-(thiazol-2-yl)-4-(trifluoromethoxy)benzoxazole] | 93%
C[C@@H]1CNCCN1c1nc2c(C(F)(F)F)c(Cl)cc(-c3ccccn3)c2o1 [Example 178, (R)-5-Chloro-2-(2-methylpiperazin-1-yl)-7-(pyridin-2-yl)-4-(trifluoromethyl)benzoxazole] | 33%
C[C@@H]1CNCCN1c1nc2c(C(F)(F)F)c(Cl)cc(-c3nccs3)c2o1 [Example 179, (R)-5-Chloro-2-(2-methylpiperazin-1-yl)-7-(thiazol-2-yl)-4-(trifluoromethyl)benzoxazole] | 79%
C[C@@H]1CNCCN1c1nc2c(C(F)(F)F)c(Cl)cc(-n3cccn3)c2o1 [Example 180, (R)-5-Chloro-2-(2-methylpiperazin-1-yl)=7-(1H-pyrazol-1-yl)-4-(trifluoromethyl)benzoxazole] | 43%
